Results: US10208067B2, “Compounds for treating spinal muscular atrophy” (Hoffmann-La Roche Inc., priority 2015, dated 2019)
Read-outs that look alike come from different tables or passages of the source.

Columns and labels:
[1] = test system: full length SMN2 minigene mRNA (HEK293H cells stably transfected with SMN2-A minigene); assay: RT-qPCR assay for SMN2 minigene pre-mRNA splicing in cultured cells; type: cell-based; conditions: Homo sapiens, HEK293-H, 24 hours
[2] = test system: SMN protein in SMA patient fibroblast cells (GM03813); assay: SMN protein assay (HTRF) in cultured cells; type: cell-based; conditions: Homo sapiens, SMA Type 1 patient fibroblasts, 48 hours; for EC (1.5-fold): concentration producing 1.5 times SMN protein vs vehicle, read-out: EC1.5x SMN protein; for maximal fold induction: relative to vehicle control, read-out: max. fold increase of SMN protein
Method: The SMN HTRF (homogeneous time resolved fluorescence) assay is used to quantify the level of SMN protein in SMA patient fibroblast cells treated with test compounds. Materials used and respective sources are listed below in Table 4.
Cells are thawed and cultured in DMEM-10% FBS for 72 hours. Cells are trypsinized, counted and re-suspended to a concentration of 25,000 cells/mL in DMEM-10% FBS. The cell suspensions are plated at 5,000 cells per well in a 96 well microtiter plate and incubated for […]. […] 1 μL of test compound solution is transferred to cell-containing wells and cells are incubated for 48 hours in a cell culture incubator (37° C., 5% CO2, 100% relative humidity). Triplicate samples are set up for each test compound concentration. After 48 hours, the supernatant is removed from the wells and 25 μL of the RIPA lysis buffer, containing protease inhibitors, is added to the wells and incubated with shaking at room temperature for 1 hour. 25 μL of the diluent is added and then 35 μL of the resulting lysate is transferred to a 384-well plate, where each well contains 5 μL of the antibody solution (1:100 dilution of anti-SMN d2 and anti-SMN cryptate in SMN reconstitution buffer). The plate is centrifuged for 1 minute to bring the solution to the bottom of the wells, then incubated overnight at room temperature. Fluorescence for each well of the plate at 665 nm and 620 nm is measured on an EnVision multilabel plate reader (Perkin-Elmer).
The normalized fluorescence signal is calculated for each sample, Blank and vehicle control well by dividing the signal at 665 nm by the signal at 620 nm. Normalizing the signal accounts for possible fluorescence quenching due to the matrix effect of the lysate. The ΔF value (a measurement of SMN protein abundance as a percent value) for each sample well is calculated by subtracting the normalized average fluorescence for the Blank control wells from the normalized fluorescence for each sample well, then dividing this difference by the normalized average fluorescence for the Blank control wells and multiplying the resulting value by 100. The ΔF value for each sample well represents the SMN protein abundance from test compound-treated samples. The ΔF value for each sample well is divided by the ΔF value for the vehicle control wells to calculate the fold increase in SMN protein abundance relative to the vehicle control. Table 5 provides EC1-5× concentrations for SMN protein expression that was obtained from the 7-point concentration data generated according to the above procedure for particular compounds of the present invention.
Table 6 provides the maximum fold increase of SMN protein that was obtained from the 7-point concentration data generated according to the above procedure for particular compounds of the present invention

[3] = Table 3 (title: production of full length SMN2 minigene mRNA), read-out: EC1.5x SMN protein
[4] = concentration increasing full length SMN2 minigene mRNA 1.5-fold vs vehicle, read-out: EC1.5x minigene

Cc1nc2ccc(-c3cc(=O)n4cc(N5C[C@@H]6C[C@H]7CNC[C@]76C5)ccc4n3)nn2n1 [Example 47, 7-((3aR,4aR,7aS)-hexahydro-1H-cyclobuta[1,2-c:1,4-c′]dipyrrol-2(3H)-yl)-2-(2-methyl-[1,2,4]triazolo[1,5-b]pyridazin-6-yl)-4H-pyrido[1,2-a]pyrimidin-4-one]
EC (1.5-fold) [1, 3]: 0.0041 µM | EC (1.5-fold) [2]: 0.0249 µM | maximal fold induction [2]: 1.87

Cc1nc2ccc(-c3cc(=O)n4cc(N5CCN[C@H](C)C5)cc(C)c4n3)nn2n1 [Example 40, 9-methyl-7-[(3R)-3-methylpiperazin-1-yl]-2-(2-methyl-[1,2,4]triazolo[1,5-b]pyridazin-6-yl)pyrido[1,2-a]pyrimidin-4-one]
EC (1.5-fold) [1, 3]: 0.0088 µM | EC (1.5-fold) [2]: 0.0148 µM | maximal fold induction [2]: 2.08

Cc1nc2ncc(-c3cc(=O)n4cc(N5CCN[C@H](C)C5)ccc4n3)cn2n1 [Example 24, 7-[(3R)-3-methylpiperazin-1-yl]-2-(2-methyl-[1,2,4]triazolo[1,5-a]pyrimidin-6-yl)pyrido[1,2-a]pyrimidin-4-one]
EC (1.5-fold) [1, 3]: 0.0348 µM | EC (1.5-fold) [2]: 0.121 µM | maximal fold induction [2]: 1.87

Cc1nc2ncc(-c3cc(=O)n4cc(N5CC6CN(C)CC6C5)ccc4n3)cn2n1 (stereo not drawn) [Example 8]
EC (1.5-fold) [1, 4]: 0.0659 µM | EC (1.5-fold) [2]: 0.313 µM | maximal fold induction [2]: 1.85

Cc1nc2ccc(-c3cc(=O)n4cc(N5CCCN(C)CC5)cc(C)c4n3)nn2n1 [Example 25, 9-methyl-7-(4-methyl-1,4-diazepan-1-yl)-2-(2-methyl-[1,2,4]triazolo[1,5-b]pyridazin-6-yl)pyrido[1,2-a]pyrimidin-4-one]
EC (1.5-fold) [1, 3]: 0.0103 µM | EC (1.5-fold) [2]: 0.226 µM | maximal fold induction [2]: 1.89

Cc1nc2ccc(-c3cc(=O)n4cc(N5C[C@H](C)N[C@@H](C)C5)ccc4n3)nn2n1 [Example 42, 7-[(3S,5S)-3,5-dimethylpiperazin-1-yl]-2-(2-methyl-[1,2,4]triazolo[1,5-b]pyridazin-6-yl)pyrido[1,2-a]pyrimidin-4-one]
EC (1.5-fold) [1, 3]: 0.0083 µM | EC (1.5-fold) [2]: 0.0629 µM | maximal fold induction [2]: 1.81

Cc1nc2ccc(-c3cc(=O)n4cc(N5CC6(CN(C)C6)C5)ccc4n3)nn2n1 [Example 46, 7-(6-methyl-2,6-diazaspiro[3.3]heptan-2-yl)-2-(2-methyl-[1,2,4]triazolo[1,5-b]pyridazin-6-yl)pyrido[1,2-a]pyrimidin-4-one]
EC (1.5-fold) [1, 3]: 0.003 µM | EC (1.5-fold) [2]: 0.0314 µM | maximal fold induction [2]: 1.75

Cc1nc2ncc(-c3cc(=O)n4cc(N5CCN[C@@H](C)C5)ccc4n3)cn2n1 [Example 16, 7-[(3S)-3-methylpiperazin-1-yl]-2-(2-methyl-[1,2,4]triazolo[1,5-a]pyrimidin-6-yl)pyrido[1,2-a]pyrimidin-4-one]
EC (1.5-fold) [1, 4]: 0.115 µM | EC (1.5-fold) [2]: 0.281 µM | maximal fold induction [2]: 1.71

Cc1nc2ccc(-c3cc(=O)n4cc(N5CCNC6(CC6)C5)ccc4n3)nn2n1 [Example 44, 7-(4,7-diazaspiro[2.5]octan-7-yl)-2-(2-methyl-[1,2,4]triazolo[1,5-b]pyridazin-6-yl)pyrido[1,2-a]pyrimidin-4-one]
EC (1.5-fold) [1, 3]: 0.0578 µM | EC (1.5-fold) [2]: 0.265 µM | maximal fold induction [2]: 2.02

Cc1nc2ccc(-c3cc(=O)n4cc(N5CCN6CCC[C@@H]6C5)cc(C)c4n3)nn2n1 [Example 34, 7-[(8aR)-3,4,6,7,8,8a-hexahydro-1H-pyrrolo[1,2-a]pyrazin-2-yl]-9-methyl-2-(2-methyl-[1,2,4]triazolo[1,5-b]pyridazin-6-yl)pyrido[1,2-a]pyrimidin-4-one]
EC (1.5-fold) [1, 3]: 0.0028 µM | EC (1.5-fold) [2]: 0.0191 µM | maximal fold induction [2]: 1.8

Cc1nc2ncc(-c3cc(=O)n4cc(N5CC6(CCNCC6)C5)ccc4n3)cn2n1 [Example 5, 7-(2,7-diazaspiro[3.5]nonan-2-yl)-2-(2-methyl-[1,2,4]triazolo[1,5-a]pyrimidin-6-yl)pyrido[1,2-a]pyrimidin-4-one]
EC (1.5-fold) [1, 4]: < 0.0317 µM | EC (1.5-fold) [2]: 0.106 µM | maximal fold induction [2]: 1.99

Cc1nc2ccc(-c3cc(=O)n4cc(N5CCNCC5)ccc4n3)nn2n1 [Example 19, 7-piperazin-1-yl-2-(2-methyl-[1,2,4]triazolo[1,5-b]pyridazin-6-yl)pyrido[1,2-a]pyrimidin-4-one]
EC (1.5-fold) [1, 3]: 0.009 µM | EC (1.5-fold) [2]: 0.0392 µM | maximal fold induction [2]: 1.81

Cc1nc2ccc(-c3cc(=O)n4cc(N5C[C@H](C)N[C@@H](C)C5)cc(C)c4n3)nn2n1 [Example 37, 7-[(3S,5S)-3,5-dimethylpiperazin-1-yl]-9-methyl-2-(2-methyl-[1,2,4]triazolo[1,5-b]pyridazin-6-yl)pyrido[1,2-a]pyrimidin-4-one]
EC (1.5-fold) [1, 3]: 0.0026 µM | EC (1.5-fold) [2]: 0.0337 µM | maximal fold induction [2]: 1.78

Cc1nc2ncc(-c3cc(=O)n4cc(N5CCNC(C)(C)C5)ccc4n3)cn2n1 [Example 6, 7-(3,3-dimethylpiperazin-1-yl)-2-(2-methyl-[1,2,4]triazolo[1,5-a]pyrimidin-6-yl)pyrido[1,2-a]pyrimidin-4-one]
EC (1.5-fold) [1, 4]: 0.201 µM | EC (1.5-fold) [2]: 2.15 µM | maximal fold induction [2]: 1.7

Cc1nc2ccc(-c3cc(=O)n4cc(N5CCN(C6COC6)CC5)cc(C)c4n3)nn2n1 [Example 31, 9-methyl-7-[4-(oxetan-3-yl)piperazin-1-yl]-2-(2-methyl-[1,2,4]triazolo[1,5-b]pyridazin-6-yl)pyrido[1,2-a]pyrimidin-4-one]
EC (1.5-fold) [1, 3]: 0.13 µM | EC (1.5-fold) [2]: 1.31 µM | maximal fold induction [2]: 1.75

Cc1nc2ncc(-c3cc(=O)n4cc(N5C[C@H](C)N[C@@H](C)C5)ccc4n3)cn2n1 [Example 11, 7-[(3S,5S)-3,5-dimethylpiperazin-1-yl]-2-(2-methyl-[1,2,4]triazolo[1,5-a]pyrimidin-6-yl)pyrido[1,2-a]pyrimidin-4-one]
EC (1.5-fold) [1, 4]: < 0.03 µM | EC (1.5-fold) [2]: 0.175 µM | maximal fold induction [2]: 1.77

Cc1nc2ncc(-c3cc(=O)n4cc(N5CC6(CNC6)C5)ccc4n3)cn2n1 [Example 7, 7-(2,6-diazaspiro[3.3]heptan-2-yl)-2-(2-methyl-[1,2,4]triazolo[1,5-a]pyrimidin-6-yl)pyrido[1,2-a]pyrimidin-4-one]
EC (1.5-fold) [1, 4]: 0.107 µM | EC (1.5-fold) [2]: 0.247 µM | maximal fold induction [2]: 1.78

Cc1nc2ccc(-c3cc(=O)n4cc(N5CC[C@@H](N(C)C)C5)cc(C)c4n3)nn2n1 [Example 30, 7-[(3R)-3-(dimethylamino)pyrrolidin-1-yl]-9-methyl-2-(2-methyl-[1,2,4]triazolo[1,5-b]pyridazin-6-yl)pyrido[1,2-a]pyrimidin-4-one]
EC (1.5-fold) [1, 3]: 0.0065 µM | EC (1.5-fold) [2]: 0.0279 µM | maximal fold induction [2]: 1.98
